Biological target: T1, HNF-4α (Rattus norvegicus, UniProt P22449)
T1 sequence (P22449 1-464 isoform P22449-2): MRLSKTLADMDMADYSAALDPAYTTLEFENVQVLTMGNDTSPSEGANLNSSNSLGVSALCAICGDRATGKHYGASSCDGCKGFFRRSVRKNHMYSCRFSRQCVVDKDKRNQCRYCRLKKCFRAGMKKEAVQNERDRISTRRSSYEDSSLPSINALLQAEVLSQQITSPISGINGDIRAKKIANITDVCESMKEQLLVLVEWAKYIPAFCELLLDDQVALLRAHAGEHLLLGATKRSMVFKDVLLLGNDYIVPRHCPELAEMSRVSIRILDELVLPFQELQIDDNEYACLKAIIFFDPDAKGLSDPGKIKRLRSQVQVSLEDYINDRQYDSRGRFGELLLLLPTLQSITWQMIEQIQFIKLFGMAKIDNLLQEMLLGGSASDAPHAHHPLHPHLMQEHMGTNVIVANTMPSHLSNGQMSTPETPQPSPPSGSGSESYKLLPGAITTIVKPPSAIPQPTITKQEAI
Assay: In vitro transcription assay induced by His-HNF-4α with HeLa nuclear extract
Format: biochemical
Parameters: The full length HNF-4α1 cDNA cloned into 6His-pET11d vector was expressed in E.coli BL21 (DE3)plysS; 6His; made in house; host or cells: E. coli BL21 (DE3)plysS
Conditions: for HNF-4α transcriptional activity, agonist/antagonist character (summary): summary statement of Example 4
Experimental: a. Representative experiments showing in vitro transcription of the test template in the presence of increasing concentrations of His-HNF-4I and in the absence (lanes 1-3, 7-9) or presence of 10 μM of added palmitoyl(16:0)-CoA (lanes 4-6) or stearoyl(18:0)-CoA (lanes 10,11) as indicated. Correctly initiated transcripts of the test and control templates are denoted by (→) and ? , respectively.
b. HNF-4I-induced in vitro transcription in the absence (empty bars) or presence of 10 μM each of added palmitoyl(16:0)-CoA (filled bars) or stearoyl(18:0)-CoA (hatched bars). Fold transcription indicates the ratio of specific transcript produced by the test template over transcript from the control template normalized to the ratio observed without HNF-4a. The figure summarizes 5 independent experiments for each acyl-CoA. *-Significant as compared with the respective value in the absence of added ligand.
Reaction mixture contained 20 mM Hepes-KOH (pH 7.9), 5 mM MgCl2, 60 mM KCl, 8% glycerol, 2 mM DTT, 1 mM 3′-O-methyl-GTP, 10 units of T1RNase, 20 units of RNasin, 0.5 μg sonicated salmon sperm DNA and His-HNF-4α and test ligand as indicated. The mixture was preincubated for 30 min at 22° C. followed by adding 10 ng of pAdML200 control template consisting of the adenovirus major-late promoter (−400/+10) linked to a 200 bp G-less cassette and 200 ng of the test template consisting of three C3P copies of the apo CIII promoter sequence (−87/−66) upstream to a synthetic ovalbumin TATA box promoter in front of a 377 bp-G-less cassette. The mixture was further preincubated for 10 min at 22° C. followed by adding 40 μg of HeLa nuclear extract with additional preincubation for 30 min at 30° C. 0.5-mM ATP, 0.5 mM CTP, 25 μM UTP, and 10 μCi of [α-^32P]UTP (s.a. […], Amersham) were then added and the complete reaction mixture was incubated for 45 min at 30° C. in a final volume of 25 μl. The reaction was terminated by adding 175 μl of stop mix (0.1 M sodium acetate (pH 5.2), 10 mM EDTA, 0.1% SDS, 200 μg/ml tRNA) followed by phenol extraction and ethanol precipitation. RNA was resuspended in sample buffer containing 80% formamide and 10 mM Tris-HCl (pH 7.4) and separated on 5% polyacrylamide gel containing 7 M urea in TBE. Correctly initiated transcripts were quantitated by PhosphorImager analysis. The test DNA template was constructed by inserting into pC2AT19 plasmid a PCR-amplified oligonucleotide prepared by using the (C3P)3-TK-CAT plasmid as template and consisting of three copies of the C3P element of the Apo CIII promoter sequence (−87/−66) having an ECoRI and SSTI sites at the 5′ and 3′ ends, respectively. The resultant plasmid was cleaved with sphI and sacI and ligated to a synthetic oligonucleotide (5′-CGAGGTCCAC-[…]-3′) containing sequences of the HSV thymidine kinase promoter (−41/−29) and of the chicken ovalbumin promoter (−33/−21).
The effect of agonistic and antagonistic HNF-4α-ligands was further evaluated by analyzing the in vitro transcription rate, catalyzed by added HeLa nuclear extract and induced by recombinant HNF-4α, of a test template consisting of a 377 bp G-less cassette promoted by sequences of the HSV thymidine kinase and chicken ovalbumin promoters and enhanced by three C3P copies of the apo Clil gene promoter. Transcriptional activation by HNF-4α was evaluated in the presence and in the absence of added representative long chain fatty acyl-CoAs. […]

SMILES | effect on HNF-4α induced in vitro transcription (10 μM added acyl-CoA (FIG. 3)) | HNF-4α transcriptional activity, agonist/antagonist character (summary)
CCCCCCCCCCCCCCCCCC(=O)SCCNC(=O)CCNC(=O)[C@H](O)C(C)(C)COP(=O)(O)OP(=O)(O)OC[C@H]1O[C@@H](n2cnc3c(N)ncnc32)[C@H](O)[C@@H]1OP(=O)(O)O [Stearoyl(18:0)-CoA] | inhibited | true antagonist
CCCCCCCCCCCCCC(=O)SCCNC(=O)CCNC(=O)[C@H](O)C(C)(C)COP(=O)(O)OP(=O)(O)OC[C@H]1O[C@@H](n2cnc3c(N)ncnc32)[C@H](O)[C@@H]1OP(=O)(O)O [myristoyl(14:0)-CoA, reference compound] | – | activators

— patent publication US20040171688A1, “Carboxylic acids and derivatives thereof and pharmaceutical compositions containing them” (priority 1997, published 2004)
